Data: ChEMBL document CHEMBL4507310, “Data for DCP probe A-1211212” (2021)

Experiments:
D(3) dopamine receptor = D(3) dopamine receptor (Homo sapiens, UniProt P35462); test: GPCRScan assay: inhibition of D3; design: radioligand conc. used [nm] 0.5 – 1.8, parental cells HEKT
[1] = target: Sodium-dependent dopamine transporter (Homo sapiens, UniProt Q01959); test: GPCRScan assay: inhibition of DAT; design: radioligand conc. used [nm] 3.6 – 16.0, parental cells stable HEK
[2] = target: Alpha-1D adrenergic receptor (Homo sapiens, UniProt P25100); test: GPCRScan assay: inhibition of Alpha1D; design: radioligand conc. used [nm] 0.3 – 1.0, parental cells stable
RS4-11 = test: CellTiter-Glo Luminescent Cell Viability Assay with RS4-11 cells (BCL-2 dependent cell line); assay type: functional, cell-based; details: Homo sapiens
[3] = target: T1, Alpha-2B adrenergic receptor (Homo sapiens) (UniProt P18089); test: Alpha2B (h) Eurofins-Cerep binding assay; design: ligand concentration 2.5 nM; details: filed as antagonist, Compound concentration 10.0 uM
T1 sequence (whole entry): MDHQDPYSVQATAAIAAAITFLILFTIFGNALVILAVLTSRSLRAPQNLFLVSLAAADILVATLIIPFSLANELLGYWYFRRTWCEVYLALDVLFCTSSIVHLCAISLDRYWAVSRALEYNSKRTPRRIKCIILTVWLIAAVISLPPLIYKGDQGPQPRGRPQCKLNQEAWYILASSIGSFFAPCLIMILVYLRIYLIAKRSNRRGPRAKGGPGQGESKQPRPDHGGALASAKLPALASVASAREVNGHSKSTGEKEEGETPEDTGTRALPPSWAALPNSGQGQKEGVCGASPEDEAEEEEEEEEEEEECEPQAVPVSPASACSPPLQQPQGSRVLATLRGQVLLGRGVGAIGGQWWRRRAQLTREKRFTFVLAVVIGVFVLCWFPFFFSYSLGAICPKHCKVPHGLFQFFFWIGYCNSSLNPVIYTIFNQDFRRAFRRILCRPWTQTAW

[4] = target: Cholecystokinin receptor type A (Homo sapiens) (UniProt P32238); test: CCK1 (CCKA) (h) Eurofins-Cerep binding assay; design: ligand concentration 0.08 nM; details: filed as agonist, Compound concentration 10.0 uM
Chain of Cholecystokinin receptor type A (Homo sapiens) (P32238 whole entry): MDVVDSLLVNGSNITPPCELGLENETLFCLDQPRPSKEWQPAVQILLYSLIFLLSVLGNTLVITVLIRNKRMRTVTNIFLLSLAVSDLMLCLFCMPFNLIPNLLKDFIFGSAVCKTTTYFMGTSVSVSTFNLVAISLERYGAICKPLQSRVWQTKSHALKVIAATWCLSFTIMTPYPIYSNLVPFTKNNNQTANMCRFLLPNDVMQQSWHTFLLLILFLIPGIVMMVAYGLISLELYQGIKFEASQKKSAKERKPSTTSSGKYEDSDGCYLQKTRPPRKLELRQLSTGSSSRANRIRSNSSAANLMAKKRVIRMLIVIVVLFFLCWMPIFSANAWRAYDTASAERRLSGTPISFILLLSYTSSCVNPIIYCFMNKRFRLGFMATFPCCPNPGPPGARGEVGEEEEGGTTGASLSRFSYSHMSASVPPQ

[5] = tested on: ALK tyrosine kinase receptor (Homo sapiens), Q9UM73 [L1196M]; details: Compound concentration 1000.0 nM
Chain of ALK tyrosine kinase receptor (Homo sapiens), Q9UM73 [L1196M] (Q9UM73 whole entry L1196M, looked up): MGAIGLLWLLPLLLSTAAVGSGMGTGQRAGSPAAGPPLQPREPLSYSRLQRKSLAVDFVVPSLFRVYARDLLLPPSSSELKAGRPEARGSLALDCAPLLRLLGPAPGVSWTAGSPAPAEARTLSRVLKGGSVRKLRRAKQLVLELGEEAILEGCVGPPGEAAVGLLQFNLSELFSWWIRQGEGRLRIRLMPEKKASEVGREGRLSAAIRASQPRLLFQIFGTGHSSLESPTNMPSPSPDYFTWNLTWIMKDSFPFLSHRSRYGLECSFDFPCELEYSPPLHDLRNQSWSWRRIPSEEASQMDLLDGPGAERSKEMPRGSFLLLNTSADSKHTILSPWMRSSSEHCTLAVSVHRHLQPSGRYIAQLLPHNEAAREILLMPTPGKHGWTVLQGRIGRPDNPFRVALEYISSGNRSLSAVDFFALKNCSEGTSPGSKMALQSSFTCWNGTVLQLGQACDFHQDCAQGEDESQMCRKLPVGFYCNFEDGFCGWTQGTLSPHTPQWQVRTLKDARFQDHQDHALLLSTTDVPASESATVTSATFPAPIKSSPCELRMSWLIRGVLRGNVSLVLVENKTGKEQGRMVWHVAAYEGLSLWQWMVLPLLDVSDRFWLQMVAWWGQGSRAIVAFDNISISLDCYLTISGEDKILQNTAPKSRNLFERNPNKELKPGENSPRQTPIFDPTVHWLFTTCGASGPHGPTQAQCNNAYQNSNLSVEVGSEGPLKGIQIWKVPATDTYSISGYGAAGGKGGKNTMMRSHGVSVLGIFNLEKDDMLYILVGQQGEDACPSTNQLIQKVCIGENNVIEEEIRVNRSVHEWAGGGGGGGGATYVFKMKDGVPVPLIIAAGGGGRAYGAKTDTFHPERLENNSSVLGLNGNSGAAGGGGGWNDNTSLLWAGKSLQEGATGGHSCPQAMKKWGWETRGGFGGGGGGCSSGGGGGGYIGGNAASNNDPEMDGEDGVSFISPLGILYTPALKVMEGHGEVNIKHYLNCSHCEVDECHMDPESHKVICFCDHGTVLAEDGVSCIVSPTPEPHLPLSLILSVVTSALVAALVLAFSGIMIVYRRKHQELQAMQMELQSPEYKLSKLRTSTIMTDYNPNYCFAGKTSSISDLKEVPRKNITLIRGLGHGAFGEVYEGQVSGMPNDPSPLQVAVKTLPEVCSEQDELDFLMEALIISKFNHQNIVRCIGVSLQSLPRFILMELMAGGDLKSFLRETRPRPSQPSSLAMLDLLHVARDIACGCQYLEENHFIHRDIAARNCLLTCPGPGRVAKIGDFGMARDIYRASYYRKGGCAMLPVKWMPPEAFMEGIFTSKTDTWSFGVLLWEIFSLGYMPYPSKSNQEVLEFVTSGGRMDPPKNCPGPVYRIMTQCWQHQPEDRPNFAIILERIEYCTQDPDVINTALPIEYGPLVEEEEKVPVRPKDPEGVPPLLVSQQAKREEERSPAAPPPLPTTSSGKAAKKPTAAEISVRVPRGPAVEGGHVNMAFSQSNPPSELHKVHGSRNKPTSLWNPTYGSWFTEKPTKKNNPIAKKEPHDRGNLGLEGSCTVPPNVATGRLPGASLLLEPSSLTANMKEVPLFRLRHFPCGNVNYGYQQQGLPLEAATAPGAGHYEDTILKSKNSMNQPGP

[6] = tested on: Epidermal growth factor receptor (Homo sapiens), P00533 [G719C]; details: Compound concentration 1000.0 nM
[7] = target: Kappa-type opioid receptor (Homo sapiens) (UniProt P41145); details: Compound concentration 10.0 uM
Chain of Kappa-type opioid receptor (Homo sapiens) (P41145 whole entry): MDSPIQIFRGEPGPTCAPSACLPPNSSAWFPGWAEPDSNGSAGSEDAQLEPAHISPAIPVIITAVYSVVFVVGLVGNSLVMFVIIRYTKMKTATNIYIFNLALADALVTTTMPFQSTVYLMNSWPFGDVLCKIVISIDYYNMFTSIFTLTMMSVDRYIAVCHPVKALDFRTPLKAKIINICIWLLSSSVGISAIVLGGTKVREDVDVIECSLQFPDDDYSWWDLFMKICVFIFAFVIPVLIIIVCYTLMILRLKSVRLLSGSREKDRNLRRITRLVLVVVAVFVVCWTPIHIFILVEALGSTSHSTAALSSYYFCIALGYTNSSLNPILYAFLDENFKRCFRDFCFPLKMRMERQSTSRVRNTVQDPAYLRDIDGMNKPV

[8] = target: Induced myeloid leukemia cell differentiation protein Mcl-1 (Homo sapiens, UniProt Q07820); test: Time-resolved fluorescence energy transfer (TR-FRET) with MCL1
AMO1 = test: CellTiter-Glo Luminescent Cell Viability Assay ( MCL-1 dependent cell line AMO-1); assay type: functional, cell-based; details: Homo sapiens
[9] = target: T2, 5-hydroxytryptamine receptor 1A (Homo sapiens) (UniProt P08908); details: Compound concentration 10.0 uM
T2 sequence (whole entry): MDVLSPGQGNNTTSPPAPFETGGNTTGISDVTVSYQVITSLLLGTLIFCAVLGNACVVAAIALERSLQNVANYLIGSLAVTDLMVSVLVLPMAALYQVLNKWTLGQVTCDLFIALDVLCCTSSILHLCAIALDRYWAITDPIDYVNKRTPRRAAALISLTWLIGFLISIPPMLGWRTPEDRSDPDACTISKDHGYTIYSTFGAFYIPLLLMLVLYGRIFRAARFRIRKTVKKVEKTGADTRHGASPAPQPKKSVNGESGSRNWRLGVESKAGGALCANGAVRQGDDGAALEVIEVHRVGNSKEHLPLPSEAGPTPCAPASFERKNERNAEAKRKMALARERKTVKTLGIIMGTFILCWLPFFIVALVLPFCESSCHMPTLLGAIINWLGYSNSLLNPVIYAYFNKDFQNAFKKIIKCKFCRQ

[10] = target: 5-hydroxytryptamine receptor 6 (Homo sapiens) (UniProt P50406); details: Compound concentration 10.0 uM
[11] = target: 5-hydroxytryptamine receptor 7 (Homo sapiens) (UniProt P34969); details: Compound concentration 10.0 uM
[12] = target: D(4) dopamine receptor (Homo sapiens) (UniProt P21917); details: Compound concentration 10.0 uM
[13] = target: Sodium-dependent noradrenaline transporter (Homo sapiens) (UniProt P23975); details: Compound concentration 10.0 uM
Chain of Sodium-dependent noradrenaline transporter (Homo sapiens) (P23975 whole entry): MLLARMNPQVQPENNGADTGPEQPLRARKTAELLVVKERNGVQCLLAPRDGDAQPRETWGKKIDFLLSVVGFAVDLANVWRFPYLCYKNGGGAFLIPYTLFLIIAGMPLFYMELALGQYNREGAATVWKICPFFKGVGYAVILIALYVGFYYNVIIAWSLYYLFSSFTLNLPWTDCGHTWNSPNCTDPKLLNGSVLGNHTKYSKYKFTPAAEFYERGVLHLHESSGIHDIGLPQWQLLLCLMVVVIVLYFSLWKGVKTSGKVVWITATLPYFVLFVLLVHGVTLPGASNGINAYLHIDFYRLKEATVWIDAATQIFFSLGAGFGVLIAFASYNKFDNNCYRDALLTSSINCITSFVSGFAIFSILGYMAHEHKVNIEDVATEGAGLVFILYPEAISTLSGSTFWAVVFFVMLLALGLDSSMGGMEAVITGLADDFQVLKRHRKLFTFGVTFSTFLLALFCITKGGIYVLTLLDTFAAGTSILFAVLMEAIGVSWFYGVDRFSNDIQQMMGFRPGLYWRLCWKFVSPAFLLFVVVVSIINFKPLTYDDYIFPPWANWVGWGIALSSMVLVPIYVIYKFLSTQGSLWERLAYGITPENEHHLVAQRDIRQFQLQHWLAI

[14] = target: Beta-2 adrenergic receptor (Homo sapiens) (UniProt P07550); details: Compound concentration 10.0 uM
Chain of Beta-2 adrenergic receptor (Homo sapiens) (P07550 whole entry, looked up): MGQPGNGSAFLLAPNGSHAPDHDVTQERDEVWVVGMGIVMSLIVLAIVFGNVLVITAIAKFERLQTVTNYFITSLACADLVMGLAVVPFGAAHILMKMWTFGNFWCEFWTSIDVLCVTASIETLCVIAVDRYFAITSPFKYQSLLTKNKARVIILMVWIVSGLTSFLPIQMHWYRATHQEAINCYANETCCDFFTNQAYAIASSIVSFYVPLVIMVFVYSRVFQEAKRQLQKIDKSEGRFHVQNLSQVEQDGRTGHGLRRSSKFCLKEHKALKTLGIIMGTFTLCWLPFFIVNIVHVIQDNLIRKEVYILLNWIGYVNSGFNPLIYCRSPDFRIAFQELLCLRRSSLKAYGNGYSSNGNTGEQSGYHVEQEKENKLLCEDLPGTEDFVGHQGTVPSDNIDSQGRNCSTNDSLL

[15] = target: Beta-3 adrenergic receptor (Homo sapiens) (UniProt P13945); details: Compound concentration 10.0 uM
Chain of Beta-3 adrenergic receptor (Homo sapiens) (P13945 whole entry, looked up): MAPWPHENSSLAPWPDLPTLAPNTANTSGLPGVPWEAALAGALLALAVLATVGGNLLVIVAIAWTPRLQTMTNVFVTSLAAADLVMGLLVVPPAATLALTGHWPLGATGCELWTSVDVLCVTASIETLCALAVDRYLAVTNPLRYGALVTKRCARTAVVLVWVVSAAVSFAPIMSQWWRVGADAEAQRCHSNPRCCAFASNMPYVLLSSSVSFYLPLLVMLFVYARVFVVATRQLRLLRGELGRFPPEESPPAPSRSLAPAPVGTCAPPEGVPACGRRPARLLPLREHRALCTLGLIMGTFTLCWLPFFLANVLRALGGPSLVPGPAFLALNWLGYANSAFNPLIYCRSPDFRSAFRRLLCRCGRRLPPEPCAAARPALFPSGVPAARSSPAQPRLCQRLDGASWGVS

[16] = target: Alpha-1D adrenergic receptor (Homo sapiens) (UniProt P25100); details: Compound concentration 10.0 uM

Chain of Sodium-dependent dopamine transporter (Q01959 whole entry): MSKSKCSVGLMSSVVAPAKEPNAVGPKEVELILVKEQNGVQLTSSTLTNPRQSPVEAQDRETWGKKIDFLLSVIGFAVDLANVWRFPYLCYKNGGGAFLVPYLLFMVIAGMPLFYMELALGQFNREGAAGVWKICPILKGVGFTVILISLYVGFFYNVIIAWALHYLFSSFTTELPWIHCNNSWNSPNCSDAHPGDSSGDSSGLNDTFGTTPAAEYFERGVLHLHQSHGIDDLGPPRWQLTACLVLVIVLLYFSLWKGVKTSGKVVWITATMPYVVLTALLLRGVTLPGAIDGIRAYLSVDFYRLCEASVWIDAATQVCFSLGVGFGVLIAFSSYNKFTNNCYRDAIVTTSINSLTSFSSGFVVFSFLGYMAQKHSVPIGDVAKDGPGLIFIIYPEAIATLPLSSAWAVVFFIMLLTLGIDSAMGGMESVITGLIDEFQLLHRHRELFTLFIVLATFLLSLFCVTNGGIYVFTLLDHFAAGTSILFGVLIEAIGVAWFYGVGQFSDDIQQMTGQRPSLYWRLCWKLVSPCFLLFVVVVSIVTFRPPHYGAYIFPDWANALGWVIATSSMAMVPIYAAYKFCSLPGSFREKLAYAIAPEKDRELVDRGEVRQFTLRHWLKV
Chain of D(3) dopamine receptor (P35462 whole entry): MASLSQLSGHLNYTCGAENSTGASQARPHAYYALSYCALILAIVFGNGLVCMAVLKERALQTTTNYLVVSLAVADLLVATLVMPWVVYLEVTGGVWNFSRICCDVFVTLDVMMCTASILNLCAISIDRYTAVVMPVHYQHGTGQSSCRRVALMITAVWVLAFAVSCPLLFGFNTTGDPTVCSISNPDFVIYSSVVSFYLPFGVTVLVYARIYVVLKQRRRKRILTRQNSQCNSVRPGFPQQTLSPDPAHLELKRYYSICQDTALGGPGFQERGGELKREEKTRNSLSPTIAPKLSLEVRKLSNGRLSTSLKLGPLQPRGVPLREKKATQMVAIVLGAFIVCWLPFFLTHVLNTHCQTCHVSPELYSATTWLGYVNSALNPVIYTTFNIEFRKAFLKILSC

SMILES	Ki (D(3) dopamine receptor) [µM]	Ki ([1]; read-out: Ki) [µM]	Ki ([1]; read-out: pKi (converted)) [µM]	Ki [2] [µM]	EC50 (RS4-11)	% Inhibition of Control Specific Binding (Mean n=2) [3] [%]	% Inhibition of Control Specific Binding (Mean n=2) [4] [%]	residual activity [5] [%]	residual activity [6] [%]	inhibition [7] [%]	IC50 [8]	EC50 (AMO1)	inhibition [9] [%]	inhibition [10] [%]	inhibition [11] [%]	inhibition [12] [%]	inhibition [13] [%]	inhibition [14] [%]	inhibition [15] [%]	inhibition [16] [%]
O=C(NS(=O)(=O)c1ccc(NCC2CCOCC2)c([N+](=O)[O-])c1)c1ccc(N2CCN(Cc3ccc(C(F)(F)F)cc3-c3ccc(Cl)cc3)CC2)cc1Oc1cnc2[nH]ccc2c1 [A-1210227]	10	9.8	9.77	10	> 5 µM (not active)	-11.6	-44.1	100	83	-0.08	–	–	–	–	–	–	–	–	–	–
CO[C@H]1CC[C@H](CNc2ccc(S(=O)(=O)NC(=O)c3ccc(N4CCN(CC5=C(c6ccc(Cl)cc6)CC(C)(C)CC5)CC4)cc3Oc3cnc4[nH]ccc4c3)cc2[N+](=O)[O-])CC1 [A-1211212]	–	–	–	–	–	-20.1	1.6	100	67	–	2.05 µM (not active)	> 1 µM (not active)	-7.27	-8.56	-7.24	-4.72	39.5	21.3	-6.65	-9.01
